pIC50: −log10 of the molar value. Where two headings read alike, the source gives them in different places.
Columns and labels:
Jurkat E6.1 cells = experiment: FasL-induced apoptosis, cell viability; type: cell-based; conditions: 100 ng/ml human FasL, 24 h; 0.5 μM ponatinib, 5 μM pazopanib
Procedure: (§1) Cells were seeded in 12-, 24- or 96-well plates at proper cell density. For necroptosis or apoptosis assays, cells were incubated with the indicated compound combinations at concentrations stated for 14–24 h. Smac mimetic and z-VAD-FMK were added 30–60 min before treatment with TNF-α, FasL or TRAIL. Cell viability was determined using CellTiter Glo Luminescent Cell Viability Assay (Promega, Fitchburg, WI, USA) according to the manufacturer's instructions. Luminescence was recorded with a SpectraMax M5Multimode plate reader (Molecular Devices, Sunnyvale, CA, USA). For flow cytometry-based determination of viability, cells were harvested, collected by centrifugation, washed once and resuspended in staining buffer (1 × PBS, 10% FBS). Cells were incubated with 0.5 μg/ml PI for 10 min at room temperature (RT) in the dark. Flow cytometric analyses were performed on an LSR Fortessa (BD Biosciences) and analyzed with FlowJo software version 7.6.3 (Tree Star Inc, Ashland, OR, USA). Cell size was evaluated by forward scatter. PI-negative normal-sized cells were considered living and data were normalized to values of untreated controls. For detection of apoptosis, cells were resuspended in Annexin V Binding Buffer (BioLegend, San Diego, CA, USA) and stained with 0.5 μg/ml PI and Alexa Fluor 647 Annexin V (BioLegend) according to manufacturer's instructions.

[1] = tested on: FADD-deficient Jurkat cells; experiment: Flow cytometry viability (propidium iodide / forward scatter), TNFα-induced necroptosis; type: cell-based; conditions: human, 6 h
Procedure: as §1

3T3-SA cells = experiment: TNF-α/z-VAD (TZ)-induced necroptosis; type: cell-based, murine; conditions: Supplementary Figures 3a, b
Procedure: as §1

RIPK3 = RIPK3 (Homo sapiens, UniProt Q9Y572); experiment: Recombinant kinase assay; type: biochemical; parameters: purchased Signalchem R09-10G
Chain of RIPK3 (Q9Y572 whole entry): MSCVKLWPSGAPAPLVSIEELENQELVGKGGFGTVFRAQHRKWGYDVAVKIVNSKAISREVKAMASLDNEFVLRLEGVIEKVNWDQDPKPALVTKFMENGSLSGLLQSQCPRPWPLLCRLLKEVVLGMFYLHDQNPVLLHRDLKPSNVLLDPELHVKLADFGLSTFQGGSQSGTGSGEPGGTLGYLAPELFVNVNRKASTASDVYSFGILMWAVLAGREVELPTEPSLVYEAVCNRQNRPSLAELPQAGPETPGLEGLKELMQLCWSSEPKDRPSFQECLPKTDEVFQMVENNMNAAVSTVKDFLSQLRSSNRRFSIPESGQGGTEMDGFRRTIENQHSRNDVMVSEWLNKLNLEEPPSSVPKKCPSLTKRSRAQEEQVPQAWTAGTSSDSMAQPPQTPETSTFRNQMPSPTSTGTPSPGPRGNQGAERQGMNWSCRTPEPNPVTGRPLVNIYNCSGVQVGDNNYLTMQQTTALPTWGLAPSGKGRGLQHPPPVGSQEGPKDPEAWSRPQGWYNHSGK
Procedure: Recombinant RIPK1 or RIPK3 protein was incubated with the substrate MBP in kinase assay buffer (40 mM Tris-HCl pH 7.5, 10 mM MgCl2 and 1 mM DTT) in presence of 50 μM ATP, 5 μCi [γ-32 P]ATP and the indicated inhibitors in a total volume of 20 μl. […] The terminated reactions were spotted onto a SAM2 Biotin Capture membrane (Promega) and further processed according to the manufacturer's instructions. […] Data were normalized to a DMSO-treated control sample. For autoradiography, the reactions were stopped by addition of 5 μl 4x Laemmli buffer and incubated for 5 min at 95 °C.

HT-29 cells = experiment: Drug toxicity, cell viability 24 h; type: cell-based; conditions: Homo sapiens, HT-29, 24 h
Procedure: as §1, with “controls.” for “controls. For detection of apoptosis, cells were resuspended in Annexin V Binding Buffer (BioLegend, San Diego, CA, USA) and stained with 0.5 μg/ml PI and Alexa Fluor 647 Annexin V (BioLegend) according to manufacturer's instructions.”

RIPK3 to MLKL binding = RIPK3 to MLKL binding (Homo sapiens, UniProt Q9Y572); conditions: HT-29 HA-MLKL cells, doxycycline overnight; 0.5 μM ponatinib, 5 μM pazopanib
Chain of RIPK3 to MLKL binding (Q9Y572 whole entry): as above

L929 cells = experiment: TNF-α/z-VAD-FMK-induced necroptosis; type: cell-based, murine; conditions: Supplementary Figures 3c, d
Procedure: as §1

Cc1ccc(C(=O)Nc2ccc(CN3CCN(C)CC3)c(C(F)(F)F)c2)cc1C#Cc1cnc2cccnn12 [ponatinib, Ponatinib]
inhibition of apoptotic cell death triggered by FasL (Jurkat E6.1 cells): none of the drugs inhibited apoptotic cell death
viable cells [1]: 79,3%
block of necroptotic cell death (3T3-SA cells): capable of blocking necroptotic cell death with comparable potency
RIPK3 kinase activity (MBP phosphorylation) (RIPK3; 50 μM ATP, Figure 4e inhibitors at 10 μM): strongly blocked phosphorylation
RIPK3 autophosphorylation (RIPK3; autoradiography, Supplementary Figure 4c): efficiently blocked
pIC50 (HT-29 cells; read-out: IC50 (printed in Figure 2e)): 5.05
pIC50 (HT-29 cells; read-out: IC50 (toxicity)): 5.05
binding of RIPK3 to MLKL (RIPK3 to MLKL binding): efficiently blocked binding of RIPK3 to MLKL
protection from necroptosis (L929 cells): the effect was partial and confined to a small dosage window around 100 nM

Reference: PMC4669708 (Cell Death & Disease, 2015)
